Laboratory results from US9988371B2, “Benzimidazole analogues and related methods” (The Arizona Board of Regents, on Behalf of the University …, priority 2014, dated 2018).

Key:
[1] = molecular target: T1, RET wild type (Homo sapiens, UniProt P07949); test: RET biochemical assay (EZ Reader mobility shift); settings: 30 min pre-incubation, 200 μM ATP, exact potency beyond measurable limit
T1 construct: purchased Invitrogen
Method: Suitable screening assays for RET and VEGFR2 small molecule kinase inhibitors (from a kinase-directed fragment (KDF) library) were established. The RET kinase assay utilizes an EZ Reader Electrophoresis Mobility Chip Instrument (Caliper Life Science). In the assay, 2 nM recombinant RET enzyme (Invitrogen) is pre-incubated with a small molecule inhibitor or control buffer for 30 min to allow the Type-II kinase inhibitor to trap the DFG-out conformation to which the inhibitors bind. This class of inhibitors is indirectly competitive with ATP, and slow binding kinetics (low kd) allow the inhibitors to appear non-competitive and pseudo-irreversible in nature. Because of the non-competitive nature of these inhibitors, a more biologically relevant concentration of ATP substrate (200 μM) was incorporated in this assay. After 30 min of pre-incubation, a substrate mix containing […], 20 mM MgCl2 and 1.5 μM fluorescently labeled RET substrate peptide (Caliper LS, peptide 22; Perkin Elmer, USA) was added. The conversion level of the RET substrate peptide was then determined utilizing the EZ Reader instrument. […]
The RET kinase assay utilizes a microfluidics based instrument for direct kinase activity readout (Caliper Life Science). […] The conversion level of the RET substrate peptide was determined utilizing the EZ Reader instrument. […]

[2] = molecular target: gatekeeper mutant RETV804M (Homo sapiens, UniProt P07949, V804M); test: RET/V804M kinase assay; settings: biochemical assay; exact potency beyond measurable limit
gatekeeper mutant RETV804M, sequence (P07949 29-1114 V804M): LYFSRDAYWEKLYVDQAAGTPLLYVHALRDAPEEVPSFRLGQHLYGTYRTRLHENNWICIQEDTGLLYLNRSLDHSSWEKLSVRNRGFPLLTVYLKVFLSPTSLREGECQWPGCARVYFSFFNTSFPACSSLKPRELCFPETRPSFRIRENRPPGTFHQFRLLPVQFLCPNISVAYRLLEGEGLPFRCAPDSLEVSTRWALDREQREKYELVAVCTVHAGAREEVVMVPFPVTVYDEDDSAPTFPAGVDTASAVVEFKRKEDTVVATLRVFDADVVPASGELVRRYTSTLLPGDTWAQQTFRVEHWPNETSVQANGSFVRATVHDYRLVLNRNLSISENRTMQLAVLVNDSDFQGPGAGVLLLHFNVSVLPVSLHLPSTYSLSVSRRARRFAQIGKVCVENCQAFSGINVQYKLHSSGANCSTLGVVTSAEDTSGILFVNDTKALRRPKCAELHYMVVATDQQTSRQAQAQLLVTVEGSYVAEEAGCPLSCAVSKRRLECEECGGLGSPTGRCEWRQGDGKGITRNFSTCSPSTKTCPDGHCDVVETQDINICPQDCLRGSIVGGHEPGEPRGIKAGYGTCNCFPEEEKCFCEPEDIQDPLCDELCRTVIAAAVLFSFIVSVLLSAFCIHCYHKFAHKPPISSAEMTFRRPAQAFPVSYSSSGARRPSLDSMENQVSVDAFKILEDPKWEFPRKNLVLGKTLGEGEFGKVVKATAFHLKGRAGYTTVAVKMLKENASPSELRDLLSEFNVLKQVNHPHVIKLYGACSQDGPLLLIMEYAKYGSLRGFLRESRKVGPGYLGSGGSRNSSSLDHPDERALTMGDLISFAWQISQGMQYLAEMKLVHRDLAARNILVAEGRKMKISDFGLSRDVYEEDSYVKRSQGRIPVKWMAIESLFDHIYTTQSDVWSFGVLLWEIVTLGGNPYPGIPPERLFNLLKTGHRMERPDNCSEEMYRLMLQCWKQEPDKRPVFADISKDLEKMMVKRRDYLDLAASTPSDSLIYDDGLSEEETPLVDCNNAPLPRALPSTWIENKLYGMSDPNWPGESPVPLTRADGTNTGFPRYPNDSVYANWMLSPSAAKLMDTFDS
Method: (§1) Suitable screening assays for RET and VEGFR2 small molecule kinase inhibitors (from a kinase-directed fragment (KDF) library) were established. The RET kinase assay utilizes an EZ Reader Electrophoresis Mobility Chip Instrument (Caliper Life Science). In the assay, 2 nM recombinant RET enzyme (Invitrogen) is pre-incubated with a small molecule inhibitor or control buffer for 30 min to allow the Type-II kinase inhibitor to trap the DFG-out conformation to which the inhibitors bind. This class of inhibitors is indirectly competitive with ATP, and slow binding kinetics (low kd) allow the inhibitors to appear non-competitive and pseudo-irreversible in nature. Because of the non-competitive nature of these inhibitors, a more biologically relevant concentration of ATP substrate (200 μM) was incorporated in this assay. After 30 min of pre-incubation, a substrate mix containing […], 20 mM MgCl2 and 1.5 μM fluorescently labeled RET substrate peptide (Caliper LS, peptide 22; Perkin Elmer, USA) was added. The conversion level of the RET substrate peptide was then determined utilizing the EZ Reader instrument. Similarly, VEGFR2 and RET/V804M kinase assays have also been established using the same peptide substrate.

[3] = molecular target: VEGFR2 (Homo sapiens, UniProt P35968); test: VEGFR2 biochemical assay; settings: exact potency beyond measurable limit
VEGFR2, sequence (P35968 834-1162 limits assumed): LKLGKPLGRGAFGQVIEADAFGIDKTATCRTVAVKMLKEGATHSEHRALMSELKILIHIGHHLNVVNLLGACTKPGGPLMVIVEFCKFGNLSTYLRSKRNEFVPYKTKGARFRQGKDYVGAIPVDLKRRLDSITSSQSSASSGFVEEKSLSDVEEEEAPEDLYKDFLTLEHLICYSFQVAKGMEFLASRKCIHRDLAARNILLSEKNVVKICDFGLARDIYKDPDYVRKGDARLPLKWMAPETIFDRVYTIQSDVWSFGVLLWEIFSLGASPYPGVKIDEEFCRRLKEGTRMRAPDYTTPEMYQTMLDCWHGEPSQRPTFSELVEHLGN
Method: as §1
The VEGFR-2 assay was identical to the RET assay except that 1-2 nM recombinant VEGFR-2 was used instead of RET.

[4] = molecular target: T2, FYN (Homo sapiens, UniProt P06241); test: KINOMEscan kinase panel; assay type: binding; settings: 50 nM
T2 construct: purchased KINOMEscan
T2 sequence (P06241 whole entry): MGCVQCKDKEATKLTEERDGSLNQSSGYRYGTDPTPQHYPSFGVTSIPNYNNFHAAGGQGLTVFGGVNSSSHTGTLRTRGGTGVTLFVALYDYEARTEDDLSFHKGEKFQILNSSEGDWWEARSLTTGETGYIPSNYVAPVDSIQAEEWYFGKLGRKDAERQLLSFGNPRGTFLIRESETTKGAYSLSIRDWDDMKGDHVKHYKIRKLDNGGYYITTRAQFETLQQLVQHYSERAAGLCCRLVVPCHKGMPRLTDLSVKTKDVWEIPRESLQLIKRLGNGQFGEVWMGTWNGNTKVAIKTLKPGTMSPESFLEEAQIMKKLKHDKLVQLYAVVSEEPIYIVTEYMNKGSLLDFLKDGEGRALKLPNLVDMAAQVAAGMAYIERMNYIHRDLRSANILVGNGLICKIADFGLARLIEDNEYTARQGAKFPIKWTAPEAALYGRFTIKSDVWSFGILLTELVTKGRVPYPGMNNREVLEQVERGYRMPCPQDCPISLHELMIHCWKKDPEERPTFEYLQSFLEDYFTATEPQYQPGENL
Method: (§2) Pz-1 was exceptionally potent on RET and all tested RET mutants including gatekeeper mutants RET/V804M at less than 1 nM (FIGS. 1-3). The RET biochemical assay described herein was not suitable to determine activity of inhibitors having an IC50 of less than 1 nM, as the concentration of the RET enzyme in the assay was 2 nM. An intermediate compound was therefore used for the kinetics studies. […] Pz-1 was screened at concentration of 50 nM against 91 kinases in KINOMEscan, representing a diversity of each Kinome cluster. The kinase assays in KINOMEScan were more sensitive than the biochemical assays described above.

[5] = system: GKA; test: KINOMEscan kinase panel; assay type: binding; settings: 50 nM
Method: as §2

[6] = molecular target: T3, SRC (Homo sapiens, UniProt P12931); test: KINOMEscan kinase panel; assay type: binding; settings: 50 nM
T3 construct: purchased KINOMEscan
T3 sequence (P12931 whole entry): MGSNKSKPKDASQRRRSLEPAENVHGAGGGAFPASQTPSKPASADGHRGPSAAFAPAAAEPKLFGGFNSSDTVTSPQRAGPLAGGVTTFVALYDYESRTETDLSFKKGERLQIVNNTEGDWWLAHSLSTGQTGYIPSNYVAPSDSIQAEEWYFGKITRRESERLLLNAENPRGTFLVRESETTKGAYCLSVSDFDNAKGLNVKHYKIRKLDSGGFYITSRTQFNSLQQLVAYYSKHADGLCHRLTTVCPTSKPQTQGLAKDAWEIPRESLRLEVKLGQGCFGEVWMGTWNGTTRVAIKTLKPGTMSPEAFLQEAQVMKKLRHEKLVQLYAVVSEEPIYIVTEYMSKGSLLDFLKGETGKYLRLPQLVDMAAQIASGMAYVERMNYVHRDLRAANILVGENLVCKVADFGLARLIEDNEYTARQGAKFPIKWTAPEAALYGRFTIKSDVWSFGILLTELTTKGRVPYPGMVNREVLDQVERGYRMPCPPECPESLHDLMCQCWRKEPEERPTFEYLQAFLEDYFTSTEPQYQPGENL
Method: as §2

[7] = molecular target: T4, TRKB (Homo sapiens, UniProt Q16620); test: KINOMEscan kinase panel; assay type: binding; settings: 50 nM
T4 construct: purchased KINOMEscan
T4 sequence (Q16620 32-822): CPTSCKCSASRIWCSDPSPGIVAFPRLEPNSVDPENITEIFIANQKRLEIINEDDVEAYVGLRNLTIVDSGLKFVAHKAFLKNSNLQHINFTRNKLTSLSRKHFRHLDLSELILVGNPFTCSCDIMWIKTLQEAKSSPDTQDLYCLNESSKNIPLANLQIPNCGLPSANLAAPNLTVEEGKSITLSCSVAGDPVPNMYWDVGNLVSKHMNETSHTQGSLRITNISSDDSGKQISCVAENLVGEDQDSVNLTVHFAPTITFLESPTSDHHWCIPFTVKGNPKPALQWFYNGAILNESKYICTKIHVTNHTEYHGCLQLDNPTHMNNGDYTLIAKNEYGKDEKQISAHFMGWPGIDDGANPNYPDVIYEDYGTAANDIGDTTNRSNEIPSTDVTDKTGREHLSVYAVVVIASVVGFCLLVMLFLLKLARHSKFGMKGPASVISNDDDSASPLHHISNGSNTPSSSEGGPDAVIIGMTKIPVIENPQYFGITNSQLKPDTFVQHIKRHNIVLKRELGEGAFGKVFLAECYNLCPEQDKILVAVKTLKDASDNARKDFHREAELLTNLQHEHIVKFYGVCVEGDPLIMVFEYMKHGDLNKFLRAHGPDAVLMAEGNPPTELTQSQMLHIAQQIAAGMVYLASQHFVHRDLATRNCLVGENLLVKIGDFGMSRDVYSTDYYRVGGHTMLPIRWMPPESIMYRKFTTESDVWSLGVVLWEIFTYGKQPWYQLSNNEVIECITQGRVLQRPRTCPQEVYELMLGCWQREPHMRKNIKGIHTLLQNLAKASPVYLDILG
Method: as §2

[8] = molecular target: T5, TRKC (Homo sapiens, UniProt Q16288); test: KINOMEscan kinase panel; assay type: binding; settings: 50 nM
T5 construct: purchased KINOMEscan
T5 sequence (Q16288 32-839): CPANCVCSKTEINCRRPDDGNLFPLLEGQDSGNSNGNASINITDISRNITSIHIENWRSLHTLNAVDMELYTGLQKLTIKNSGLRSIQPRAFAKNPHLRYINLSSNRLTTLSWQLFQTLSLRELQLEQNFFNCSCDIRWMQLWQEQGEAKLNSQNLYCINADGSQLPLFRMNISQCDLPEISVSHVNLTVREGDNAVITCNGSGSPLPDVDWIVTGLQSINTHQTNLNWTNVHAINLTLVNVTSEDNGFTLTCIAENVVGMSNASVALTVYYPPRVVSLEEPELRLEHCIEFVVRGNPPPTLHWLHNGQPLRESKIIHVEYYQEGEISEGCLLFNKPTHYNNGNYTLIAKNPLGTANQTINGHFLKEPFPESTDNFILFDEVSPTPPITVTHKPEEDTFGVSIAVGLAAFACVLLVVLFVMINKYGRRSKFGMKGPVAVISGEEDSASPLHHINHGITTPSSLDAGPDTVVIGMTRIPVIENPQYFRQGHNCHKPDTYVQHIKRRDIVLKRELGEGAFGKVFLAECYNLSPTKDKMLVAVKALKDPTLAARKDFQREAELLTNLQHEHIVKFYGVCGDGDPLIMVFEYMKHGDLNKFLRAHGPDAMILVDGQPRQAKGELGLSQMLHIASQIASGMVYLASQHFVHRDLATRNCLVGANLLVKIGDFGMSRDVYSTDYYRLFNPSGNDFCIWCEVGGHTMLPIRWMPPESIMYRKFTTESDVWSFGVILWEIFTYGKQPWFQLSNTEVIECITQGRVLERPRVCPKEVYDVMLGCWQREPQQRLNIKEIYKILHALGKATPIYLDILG
Method: as §2

T1 sequence (P07949 724-1016 limits assumed): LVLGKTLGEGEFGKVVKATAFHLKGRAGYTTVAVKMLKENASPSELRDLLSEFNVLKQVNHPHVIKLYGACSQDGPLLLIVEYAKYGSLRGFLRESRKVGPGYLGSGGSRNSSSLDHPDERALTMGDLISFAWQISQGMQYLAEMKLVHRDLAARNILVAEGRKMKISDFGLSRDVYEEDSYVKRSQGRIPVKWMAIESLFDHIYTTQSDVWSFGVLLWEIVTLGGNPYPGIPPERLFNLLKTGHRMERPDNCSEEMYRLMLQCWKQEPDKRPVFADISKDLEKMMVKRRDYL

For `Cn1cc(-c2ccc3c(c2)ncn3-c2ccc(CC(=O)Nc3cc(C(C)(C)C)on3)cc2)cn1` [Pz-1, N-(5-(tert-butyl)isoxazol-3-yl)-2-(4-(5-(1-methyl-1H-pyrazol-4-yl)-1H-benzo[d]imidazol-1-yl)phenyl)acetamide], the IC50 [1] was < 1 nM, the IC50 [2] was < 1 nM and the IC50 [3] was < 1 nM. For the same compound, the inhibition at 0.05 µM [4] was ~90%, the “inhibition of GKA” value [5] was ~90% and the inhibition at 0.05 µM [6] was ~90%. The inhibition at 0.05 µM [7] was ~90% and the inhibition at 0.05 µM [8] was ~90%.
